Measured values published in US20260297092A1, “PYRAZOLOPYRIMIDINE DERIVATIVES AS INHIBITORS OF NLRP3” (Takeda Pharmaceutical Company Limited, priority 2023, published 2026).

The molecules below were run on NLRP3 inflammasome (IL-1β production in THP-1 cells) (assay: IL-1β TR-FRET Assay (percentage of inhibition at 300 nM, 6 μM or 10 μM)). Conditions: Homo sapiens, THP-1, 300 nM, LPS priming, ATP activation, read-out: IL-1β inhibitory rate at 300 nM (%).
Assay type: cell-based, human
Procedure: The biological activity of the compound of Formula 1 with respect to NLRP3 was determined using the following in vitro method.
IL-1β TR-FRET Assay (reported as percentage of inhibition at 300 nM, 6 μM or 10 μM)
Monocytic THP-1 cells (ATCC: TIB-202) were maintained in accordance with the provider's instructions in RPMI media (Life Technologies, Cat #A10491-01); RPMI was supplemented with 10% heat inactivated fetal bovine serum (Corning, Cat #35-010-CV). The cells were differentiated into macrophages by the addition of 25 ng/mL IFN-γ (PeproTech, Cat #AF-300-02-100UG) for 24 hours at 37° C./5% CO2. Media was exchanged with fresh media with no FBS, and the cells were treated with 50 ng/mL LPS (priming step) (LPS-EK: Invivogen, Cat #tlrl-peklps). The cells were plated at 20,000 cells per well in 384-well flat-bottom cell culture plates (FALCON, Cat #353962) and were incubated for 24 hours at 37° C./5% CO2. Compounds were serially diluted (half log or 5-fold dilutions) with DMSO and were finally diluted with Media with no FBS. The compounds were added to the cells in 384-well plates (added in 1:3) and then the plates were incubated for 30 minutes at 37° C./5% CO2. The NLRP3 inflammasome was activated with the addition of 20 mM ATP (Sigma Cat #A3377-25G) and the cells were incubated for 2 hours at 37° C./5% CO2. At the end of the incubation period, 30 μL supernatant was transferred to another 384-well plate and mixed on a plate shaker for 1 minute. The supernatant was mixed with HTRF Antibody (Human IL1 beta kit, Cisbio, 62HIL1BPEH) in assay plates (Greiner Bio-One, Cat #784075) and the assay plates were incubated in shading box at room temperature for 16-24 hours. HTRF signal was measured by EnVision (Perkinelmer) in accordance with the manufacturer's instructions.
The percentage of inhibition at 300 nM, 6 μM or 10 μM in the IL-1βTR-FRET assay was calculated by the following formula: Percentage of inhibition=[1−(HTRF signaltest−HTRF signalLow)/(HTRF signalHigh−HTRF signalLow)]*100, where HTRF signaltest is the HTRF signal in the well to which test compound is added, HTRF signalLow is the HTRF signal in the well to which 3 μM MCC-950 is added, and the HTRF signalHigh is the HTRF signal in the well to which DMSO is added.

SMILES	inhibition at 0.3 µM
CCOc1nc2nn(-c3c(F)cc(C4CC4)cc3C(O)C(F)F)cc2c(=O)[nH]1 (racemic) [Example 177, 2-[4-cyclopropyl-2-(2,2-difluoro-1-hydroxyethyl)-6-fluorophenyl]-6-ethoxy-2,5-dihydro-4H-pyrazolo[3,4-d]pyrimidin-4-one]	108%
CCOc1nc2nn(-c3c(F)cc(C4CC4)cc3CC(F)(F)F)cc2c(=O)[nH]1 [Example 206, 2-[4-cyclopropyl-2-fluoro-6-(2,2,2-trifluoroethyl)phenyl]-6-ethoxy-2,5-dihydro-4H-pyrazolo[3,4-d]pyrimidin-4-one]	97%
Cc1cc(Br)cc(C)c1-n1cc2c(=O)[nH]c(C3(F)CC3)nc2n1 [Example 188, 2-(4-bromo-2,6-dimethylphenyl)-6-(1-fluorocyclopropyl)-2,5-dihydro-4H-pyrazolo[3,4-d]pyrimidin-4-one]	99%
COCCOc1nc2nn(-c3c(C)cc(C4CC4)cc3C(F)F)cc2c(=O)[nH]1 [Example 210, 2-[4-cyclopropyl-2-(difluoromethyl)-6-methylphenyl]-6-(2-methoxyethoxy)-2,5-dihydro-4H-pyrazolo[3,4-d]pyrimidin-4-one]	101%
Cc1cc(C2CC2)cc(C)c1-n1cc2c(=O)[nH]c(CC(C)(C)O)nc2n1 [Example 181, 2-(4-cyclopropyl-2,6-dimethylphenyl)-6-(2-hydroxy-2-methylpropyl)-2,5-dihydro-4H-pyrazolo[3,4-d]pyrimidin-4-one]	103%
Cc1cc(C2CC2)cc(C)c1-n1cc2c(=O)[nH]c(C3COCCO3)nc2n1 (racemic) [Example 232, 2-(4-cyclopropyl-2,6-dimethylphenyl)-6-(1,4-dioxan-2-yl)-2,5-dihydro-4H-pyrazolo[3,4-d]pyrimidin-4-one]	97%
CCOc1nc2nn(-c3c(C)cc(Br)cc3OC(F)F)cc2c(=O)[nH]1 [Example 221, 2-[4-bromo-2-(difluoromethoxy)-6-methylphenyl]-6-ethoxy-2,5-dihydro-4H-pyrazolo[3,4-d]pyrimidin-4-one]	99%
CCOc1nc2nn(-c3c(F)cc(OC)cc3C(F)F)cc2c(=O)[nH]1 [Example 149, 2-[2-(difluoromethyl)-6-fluoro-4-methoxyphenyl]-6-ethoxy-2,5-dihydro-4H-pyrazolo[3,4-d]pyrimidin-4-one]	99%
CCOc1nc2nn(-c3c(C)cc(C)cc3F)cc2c(=O)[nH]1 [Example 78, 6-ethoxy-2-(2-fluoro-4,6-dimethylphenyl)-2,5-dihydro-4H-pyrazolo[3,4-d]pyrimidin-4-one]	98%
Cc1nc2nn(-c3c(C)cc(Br)cc3C)cc2c(=O)[nH]1 [Example 187, 2-(4-bromo-2,6-dimethylphenyl)-6-methyl-2,5-dihydro-4H-pyrazolo[3,4-d]pyrimidin-4-one]	97%
Cc1ccc(-n2cc3c(=O)[nH]c(OCCC(F)(F)F)nc3n2)c(C)c1 [Example 197, 2-(2,4-dimethylphenyl)-6-(3,3,3-trifluoropropoxy)-2,5-dihydro-4H-pyrazolo [3,4-d]pyrimidin-4-one]	60%

Same assay, conditions: Homo sapiens, THP-1, 6 μM, LPS priming, ATP activation, read-out: IL-1β inhibitory rate at 6 μM (%)

SMILES	inhibition at 6 µM
COc1nc2nn(-c3c(F)cc(C4CC4)cc3CC(F)F)cc2c(=O)[nH]1 [Example 309, 2-[4-cyclopropyl-2-(2,2-difluoroethyl)-6-fluorophenyl]-6-methoxy-2,5-dihydro-4H-pyrazolo [3,4-d]pyrimidin-4-one]	99%
CO[C@H]1C[C@@H](c2nc3nn(-c4c(C)cc(C5CC5)cc4C)cc3c(=O)[nH]2)C1 [Example 248, 2-(4-cyclopropyl-2,6-dimethylphenyl)-6-[(1s,3s)-3-methoxycyclobutyl]-2,5-dihydro-4H-pyrazolo[3,4-d]pyrimidin-4-one]	100%
CCc1nc2nn(-c3ccc(C4CC4)c(C(F)F)c3F)cc2c(=O)[nH]1 [Example 281, 2-[4-cyclopropyl-3-(difluoromethyl)-2-fluorophenyl]-6-ethyl-2,5-dihydro-4H-pyrazolo[3,4-d]pyrimidin-4-one]	98%
Cc1cc(C2CC2)cc(C)c1-n1cc2c(=O)[nH]c(C(C)(F)F)nc2n1 [Example 259, 2-(4-cyclopropyl-2,6-dimethylphenyl)-6-(1,1-difluoroethyl)-2,5-dihydro-4H-pyrazolo[3,4-d]pyrimidin-4-one]	104%
CCOc1nc2nn(-c3c(C#N)cc(C4CC4)cc3C(F)F)cc2c(=O)[nH]1 [Example 254, 5-cyclopropyl-3-(difluoromethyl)-2-(6-ethoxy-4-oxo-4,5-dihydro-2H-pyrazolo[3,4-d]pyrimidin-2-yl)benzonitrile]	100%
Cc1cc(C2CC2)cc(Cl)c1-n1cc2c(=O)[nH]c(COC(F)F)nc2n1 [Example 294, 2-(2-chloro-4-cyclopropyl-6-methylphenyl)-6-[(difluoromethoxy)methyl]-2,5-dihydro-4H-pyrazolo[3,4-d]pyrimidin-4-one]	106%
O=c1[nH]c(COC(F)F)nc2nn(-c3ccc(Br)cc3C(F)F)cc12 [Example 267, 2-[4-bromo-2-(difluoromethyl)phenyl]-6-[(difluoromethoxy)methyl]-2,5-dihydro-4H-pyrazolo[3,4-d]pyrimidin-4-one]	101%
CCCc1nc2nn(-c3c(C)cc(C4CC4)cc3C)cc2c(=O)[nH]1 [Example 240, 2-(4-cyclopropyl-2,6-dimethylphenyl)-6-propyl-2,5-dihydro-4H-pyrazolo[3,4-d]pyrimidin-4-one]	101%
Cc1cc(C2CC2)cc(C)c1-n1cc2c(=O)[nH]c(COC3COC3)nc2n1 [Example 236, 2-(4-cyclopropyl-2,6-dimethylphenyl)-6-{[(oxetan-3-yl)oxy]methyl}-2,5-dihydro-4H-pyrazolo[3,4-d]pyrimidin-4-one]	93%
COCc1nc2nn(-c3c(C(F)F)cc(C4CC4)c(C4CC4)c3C)cc2c(=O)[nH]1 [Example 320, 2-[3,4-dicyclopropyl-6-(difluoromethyl)-2-methylphenyl)-6-(methoxymethyl)-2,5-dihydro-4H-pyrazolo[3,4-d]pyrimidin-4-one]	94%
Cc1cc(C2(F)CC2)cc(C)c1-n1cc2c(=O)[nH]c(-c3ccn(C)n3)nc2n1 [Example 292, 2-[4-(1-fluorocyclopropyl)-2,6-dimethylphenyl]-6-(1-methyl-1H-pyrazol-3-yl)-2,5-dihydro-4H-pyrazolo[3,4-d]pyrimidin-4-one]	101%
Cc1cc(C2CC2)cc(C)c1-n1cc2c(=O)[nH]c(CO)nc2n1 [Example 304, 2-(4-cyclopropyl-2,6-dimethylphenyl)-6-(hydroxymethyl)-2,5-dihydro-4H-pyrazolo[3,4-d]pyrimidin-4-one]	103%
CCOC(Cc1nc2nn(-c3c(C)cc(C4CC4)cc3C)cc2c(=O)[nH]1)OCC [Example 234, 2-(4-cyclopropyl-2,6-dimethylphenyl)-6-(2,2-diethoxyethyl)-2,5-dihydro-4H-pyrazolo[3,4-d]pyrimidin-4-one]	90%

Same assay, conditions: Homo sapiens, THP-1, 10 μM, LPS priming, ATP activation, read-out: IL-1β inhibitory rate at 10 μM (%)

SMILES	inhibition at 10 µM
Cc1cc(C2CC2)cc(C(F)F)c1-n1cc2c(=O)[nH]c([C@H]3COCCO3)nc2n1 [Example 325, 2-[4-cyclopropyl-2-(difluoromethyl)-6-methylphenyl]-6-[(2R)-1,4-dioxan-2-yl]-2,5-dihydro-4H-pyrazolo[3,4-d]pyrimidin-4-one or 2-[4-cyclopropyl-2-(difluoromethyl)-6-methylphenyl]-6-[(2S)-1,4-dioxan-2-yl]-2,5-dihydro-4H-pyrazolo[3,4-d]pyrimidin-4-one]	100%
Cc1cc(C2CC2)cc(C(F)F)c1-n1cc2c(=O)[nH]c([C@@H]3COCCO3)nc2n1 [Example 326, 2-[4-cyclopropyl-2-(difluoromethyl)-6-methylphenyl]-6-[(2S)-1,4-dioxan-2-yl]-2,5-dihydro-4H-pyrazolo[3,4-d]pyrimidin-4-one or 2-[4-cyclopropyl-2-(difluoromethyl)-6-methylphenyl]-6-[(2R)-1,4-dioxan-2-yl]-2,5-dihydro-4H-pyrazolo[3,4-d]pyrimidin-4-one]	111%
Cc1cc(Br)cc(C)c1-n1cc2c(=O)[nH]c([C@@H](C)C(=O)O)nc2n1 [Example 170, 2-[2-(4-bromo-2,6-dimethylphenyl)-4-oxo-4,5-dihydro-2H-pyrazolo [3,4-d]pyrimidin-6-yl]propanoic acid]	136%
